Measurements reported in patent publication US4118561A, “7-(Substituted)-7H-pyrrolo[3,2-f]quinazoline-1,3-diamines” (priority 1977, dated 1978).

Tested on: Proteus mirabilis 3
Assay: In vivo antibacterial synergism (mouse), Proteus mirabilis 3
Design: species or system Proteus mirabilis (infected mice, CD-1)
Conditions: mice, p.o.; for PD50 SM/Cpd. (compound part): 0 hours, 20160 min
Experimental: The test agents are weighed, suspended in 0.5% aqueous carboxymethyl cellulose, homogenized (glass tissue grinder) and diluted according to the design of the experiment. Mice (male, 18±1 g., CD-1 strain) are pre-weighed, pooled, infected at random intraperitoneally with a 0.5 ml. standardized suspension (LD95 ±5%) of the bacterial organism in 5% gastric mucin and treated at random with single doses of the test agents either at the time of infection or six hours after infecting. The treated groups consist of ten mice per dosage level. Deaths are recorded daily for 14 days and the PD50 (mice are treated at time of infection) and CD50 (mice are treated six hours after infecting) values are calculated by the method of Reed and Muench [Amer. J. Hyg., 27, 493 (1938)].

## N#Cc1ccc(Cn2ccc3c4c(N)nc(N)nc4ccc32)cc1 [Example 16, 7-[(4-cyanophenyl)methyl]-7H-pyrrolo[3,2-f]-quinazoline-1,3-diamine]
Proteus mirabilis, 3, po, 336 h, treated 0 hours after infecting, read-out: PD50 (agent alone)
  ED50: 22.7 mg/kg
With SM 0.78 mg. per kg.
  PD50 SM/Cpd. (compound part): 7.11 mg. per kg.
With SM 1.56 mg. per kg.
  PD50 SM/Cpd. (compound part): 6.56 mg. per kg.
With SM 3.13 mg. per kg.
  PD50 SM/Cpd. (compound part): 2.28 mg. per kg.
With SM 6.25 mg. per kg.
  PD50 SM/Cpd. (compound part): 2.11 mg. per kg.
